From ChEMBL document CHEMBL5506074, “Discovery and Optimization of Tetrahydroisoquinoline Derivatives To Enhance Lysosome Biogenesis as Preclinical Candidates for the Treatment of Alzheimer's Disease” (J Med Chem, 2024)
The source made the active and inactive calls. No cut-off for these calls is given here.

Assays:
[1] = Induction of TFEB nuclear translocation in human HeLa cells expressing EGFP at 30 uM measured at 6 hrs by fluorescence microscopic analysis; assay type: functional
[2] = Tmax in ICR mouse at 10 mg/kg, ip measured upto 24 hrs by LC-MS/MS analysis; assay type: ADME, organism-based; settings: in vivo
[3] = Cmax in ICR mouse at 20 mg/kg, po measured upto 24 hrs by LC-MS/MS analysis; assay type: ADME, organism-based; settings: in vivo
[4] = Bioavailability in ICR mouse at 5 mg/kg, ip measured upto 24 hrs by LC-MS/MS analysis; assay type: ADME, organism-based; settings: in vivo
[5] = Oral bioavailability in ICR mouse at 20 mg/kg measured upto 24 hrs by LC-MS/MS analysis; assay type: ADME, organism-based; settings: in vivo
[6] = Ratio of drug concentration in ICR mouse brain to plasma at 10 mg/kg, ip measured upto 24 hrs by LC-MS/MS analysis; assay type: ADME, organism-based; settings: brain and plasma, read-out: BPR
HeLa [7] = test: Induction of lysosome biogenesis in human HeLa cells assessed as increase in number of acidified lysosomes at 10 uM incubated for 24 hrs by LysiTracker red staining based flow cytometry analysis; assay type: functional, cell-based
HeLa [8] = test: Upregulation of LAMP1 mRNA expression in human HeLa cells at 10 uM incubated for 24 hrs by qRT-PCR analysis; assay type: functional, cell-based
HeLa [9] = test: Upregulation of HEXA mRNA expression in human HeLa cells at 10 uM incubated for 24 hrs by qRT-PCR analysis; assay type: functional, cell-based
HeLa [10] = test: Upregulation of […] mRNA expression in human HeLa cells at 10 uM incubated for 24 hrs by qRT-PCR analysis; assay type: functional, cell-based
HeLa [11] = test: Upregulation of GLA mRNA expression in human HeLa cells at 10 uM incubated for 24 hrs by qRT-PCR analysis; assay type: functional, cell-based
HeLa [12] = test: Upregulation of Atg16L1 mRNA expression in human HeLa cells at 10 uM incubated for 24 hrs by qRT-PCR analysis; assay type: functional, cell-based
HeLa [13] = test: Upregulation of LAMP1 mRNA expression in TFEB knockout human HeLa cells at 10 uM incubated for 24 hrs by qRT-PCR analysis; assay type: functional, cell-based
HeLa [14] = test: Upregulation of LC3B mRNA expression in TFEB knockout human HeLa cells at 10 uM incubated for 24 hrs by qRT-PCR analysis; assay type: functional, cell-based
HeLa [15] = test: Upregulation of p62 mRNA expression in TFEB knockout human HeLa cells at 10 uM incubated for 24 hrs by qRT-PCR analysis; assay type: functional, cell-based
HeLa [16] = test: Upregulation of […] mRNA expression in TFEB knockout human HeLa cells at 10 uM incubated for 24 hrs by qRT-PCR analysis; assay type: functional, cell-based
HeLa [17] = test: Upregulation of ATG2A mRNA expression in TFEB knockout human HeLa cells at 10 uM incubated for 24 hrs by qRT-PCR analysis; assay type: functional, cell-based
HeLa [18] = test: Upregulation of GLA mRNA expression in TFEB knockout human HeLa cells at 10 uM incubated for 24 hrs by qRT-PCR analysis; assay type: functional, cell-based
[19] = molecular target: Cyclin-dependent kinase 9 (Homo sapiens) (UniProt P50750); test: Inhibition of CDK9 in human SH-SY5Y cells assessed as decrease in Rpb1 phosphorylation at 10 uM incubated for 6 hrs by immunoblotting analysis; assay type: cell-based
Chain of Cyclin-dependent kinase 9 (Homo sapiens) (P50750 whole entry): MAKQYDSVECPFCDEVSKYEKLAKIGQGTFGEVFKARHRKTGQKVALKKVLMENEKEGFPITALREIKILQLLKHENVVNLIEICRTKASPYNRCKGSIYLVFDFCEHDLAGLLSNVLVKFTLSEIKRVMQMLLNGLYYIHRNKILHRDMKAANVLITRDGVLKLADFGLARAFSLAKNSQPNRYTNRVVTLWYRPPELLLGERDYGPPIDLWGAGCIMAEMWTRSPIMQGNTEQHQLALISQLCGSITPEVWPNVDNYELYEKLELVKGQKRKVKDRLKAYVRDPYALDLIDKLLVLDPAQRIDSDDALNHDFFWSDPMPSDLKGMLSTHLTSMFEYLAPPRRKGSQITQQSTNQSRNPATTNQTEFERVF

HeLa [20] = test: Induction of cell cycle arrest in human HeLa cells assessed as effect on CDK4 level at 10 uM incubated for 12 hrs by qRT-PCR analysis; assay type: functional, cell-based
HeLa [21] = test: Induction of cell cycle arrest in human HeLa cells assessed as effect on CDK7 level at 10 uM incubated for 12 hrs by qRT-PCR analysis; assay type: functional, cell-based
[22] = molecular target: T1, Sodium-dependent dopamine transporter (Homo sapiens, UniProt Q01959); test: Displacement of [3H] dopamine from DAT in HEK293 cells incubated for 1 hr by topcount plate reader analysis; assay type: cell-based
T1 sequence (Q01959 whole entry): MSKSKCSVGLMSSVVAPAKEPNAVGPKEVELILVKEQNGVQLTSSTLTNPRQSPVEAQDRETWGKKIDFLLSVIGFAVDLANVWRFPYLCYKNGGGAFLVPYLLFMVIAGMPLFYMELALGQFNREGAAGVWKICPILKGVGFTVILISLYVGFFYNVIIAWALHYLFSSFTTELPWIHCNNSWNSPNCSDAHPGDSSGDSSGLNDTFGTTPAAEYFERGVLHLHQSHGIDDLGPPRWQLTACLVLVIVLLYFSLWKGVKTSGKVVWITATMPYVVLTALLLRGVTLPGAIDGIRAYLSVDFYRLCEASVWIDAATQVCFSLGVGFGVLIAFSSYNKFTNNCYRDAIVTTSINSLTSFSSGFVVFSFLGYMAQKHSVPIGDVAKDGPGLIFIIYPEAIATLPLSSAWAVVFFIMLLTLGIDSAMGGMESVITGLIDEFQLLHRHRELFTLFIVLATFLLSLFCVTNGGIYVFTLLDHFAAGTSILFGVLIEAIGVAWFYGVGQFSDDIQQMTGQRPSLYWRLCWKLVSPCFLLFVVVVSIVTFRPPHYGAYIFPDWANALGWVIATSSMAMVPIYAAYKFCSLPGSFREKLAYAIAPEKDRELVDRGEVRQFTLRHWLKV

[23] = molecular target: T1, Sodium-dependent dopamine transporter; test: Displacement of [3H] dopamine from DAT in HEK293 cells assessed as inhibition constant incubated for 1 hr by topcount plate reader analysis; assay type: cell-based
[24] = molecular target: T1, Sodium-dependent dopamine transporter; test: Displacement of [3H] dopamine from DAT in HEK293 cells incubated for 15 mins by microbeta analysis; assay type: cell-based
[25] = Toxicity in APP/PS1 mouse model assessed as change in body weight at 10 mg/kg, ip administered every other day for 30 days; assay type: organism-based; settings: in vivo, 720 h, time 30 day
Mus musculus [26] = test: Anti-alzheimer activity against APP/PS1 mouse model assessed as reduction in amyloid beta 42 plaque in cortex at 10 mg/kg, ip administered for 30 days; assay type: functional; set-up: scale not given: the % may be the effect or the level left; settings: time 30 day
Mus musculus [27] = test: Anti-alzheimer activity against APP/PS1 mouse model assessed as reduction in amyloid beta 42 plaque in hippocampus at 10 mg/kg, ip administered for 30 days; assay type: functional; set-up: scale not given: the % may be the effect or the level left; settings: time 30 day
Mus musculus [28] = test: Anti-alzheimer activity against APP/PS1 mouse model assessed as reduction in time to locate hidden platform at 10 mg/kg, ip administered for 30 days by Morris water maze test; assay type: functional, organism-based; settings: time 30.0 day
Mus musculus [29] = test: Anti-alzheimer activity against APP/PS1 mouse model assessed as upregulation of CTSF mRNA expression in brain at 10 mg/kg, ip administered for 30 days; assay type: functional, organism-based; settings: time 30.0 day
Mus musculus [30] = test: Anti-alzheimer activity against APP/PS1 mouse model assessed as upregulation of p62 mRNA expression in brain at 10 mg/kg, ip administered for 30 days; assay type: functional, organism-based; settings: time 30.0 day
Mus musculus [31] = test: Anti-alzheimer activity against APP/PS1 mouse model assessed as upregulation of WIPL1 mRNA expression in brain at 10 mg/kg, ip administered for 30 days; assay type: functional, organism-based; settings: time 30.0 day

| SMILES | Activity [1] [%] | Tmax [2] [min] | Cmax [3] [ng/mL] | bioavailability [4] [%] | Kp at 24 h [6] | Activity (HeLa [8]) | Activity (HeLa [9]) | Activity (HeLa [10]) | Activity (HeLa [11]) | Activity (HeLa [12]) | Activity (HeLa [13]) | Activity (HeLa [14]) | Activity (HeLa [15]) | Activity (HeLa [16]) | Activity (HeLa [17]) | Activity (HeLa [18]) | inhibition [19] | Activity (HeLa [20]) | Activity (HeLa [21]) | Activity [25] | further results |
| --- | --- | --- | --- | --- | --- | --- | --- | --- | --- | --- | --- | --- | --- | --- | --- | --- | --- | --- | --- | --- | --- |
| c1ccc2c(CCC3NCCc4cc5c(cc43)OCO5)c[nH]c2c1 (stereo not drawn) | 98 | 3 | 4030 | 115 | 1.1 | Active | Active | Active | Active | Active | Active | Active | Active | Active | Active | Active | Active | inactive | inactive | Non-Toxic | bioavailability ([5]; ICR): 76.4%; Activity (HeLa [7]): Active; IC50 [22]: 2150 nM; Ki [23]: 680 nM; IC50 [24]: 6340 nM; Activity (Mus musculus [26]): 47%; Activity (Mus musculus [27]): 43.6%; Activity (Mus musculus [28]): Active; Activity (Mus musculus [29]): Active; Activity (Mus musculus [30]): Active; Activity (Mus musculus [31]): Active |
| Fc1ccc2[nH]cc(CCC3c4cc5c(cc4CCN3CC3CCOCC3)OCO5)c2c1 (stereo not drawn) | 98 | 81 | 9.49 | 25.7 | 5.2 | Active | Active | Active | Active | Active | Active | Active | Active | Active | Active | Active | Active | inactive | inactive | Non-Toxic | F ([5]; po, 20 mg/kg, 24 h): 6.73%; Activity (Mus musculus [26]): 36.3%; Activity (Mus musculus [27]): 25.4%; Activity (Mus musculus [28]): Active; Activity (Mus musculus [29]): Active; Activity (Mus musculus [30]): Active; Activity (Mus musculus [31]): Active |
